One compound from US20240115545A1, “PHARMACEUTICAL COMPOSITION CONTAINING B-LAPACHONE AS ACTIVE INGREDIENT FOR PREVENTION OR TREATMENT OF CHOLESTATIC LIVER DISEASE” (CUROME BIOSCIENCES CO., LTD., priority 2020, published 2024) can be followed below.

The subject of assay [1] is LX-2 hepatic stellate cell line. Briefly: Fibronectin and α-SMA protein expression in TGF-β1-treated LX-2 hepatic stellate cells (immunoblotting). Conditions: LX-2 cells, 1 ng/ml TGF-β1 + 0.5 or 1 μM β-lapachone, 24 hours. It is filed as cell-based. The procedure:
Considering that inflammation and fibrosis of bile ducts cause cirrhosis in cholestatic liver disease, experiments were performed on the LX-2 hepatic stellate cell line model by using the method of Takaaki Higashi et al. (2017). The LX-2 cell line was subcultured in DMEM containing 10% FBS, 2 mM glutamine, 100 U penicillin, and 0.1 mg/ml streptomycin. The LX-2 cell line was added into a 6-well plate at a density of 16×10^4 cells/well, and cultured in DMEM containing 1 ng/ml TGF-β1, 1 ng/ml TGF-β1+0.5 μM β-lapachone or 1 ng/ml TGF-β1+1 μM β-lapachone for 24 hours. Thereafter, the protein expression levels of the fibrosis-related genes fibronectin and α-SMA of the obtained cells were measured by protein immunoblotting according to a conventional method known in the art.

Assay [2] concerns inflammation-related genes. As to the kind of experiment: mRNA levels of inflammatory cytokine genes in liver tissue (Example 3.3). The note with it: β-lapachone with DDC in diet, 7 days. It is filed as in vivo, mice. As for the experimental part: (§1) After 8-week-old C57BL/6 male mice (Samtako, Korea) were divided into each group (=6), the mice were fed a diet with normal (vehicle), control (DDC), DDC+β-lapachone 20 mg/kg, DDC+β-lapachone 40 mg/kg, DDC+β-lapachone 80 mg/kg, DDC+β-lapachone 100 mg/kg, and positive control DDC+ursodeoxycholic acid 100 mg/kg, and DDC+obeticholic acid 30 mg/kg (total 7 days). After 7 days of treatment, the mice were sacrificed and then the blood was collected from the heart. Thereafter, the levels of alanine aminotransferase (ALT), aspartate aminotransferase (AST), alkaline phosphatase (ALP), and bilirubin, which are blood indexes, were analyzed, and shown in FIG. 4.
In the cholestatic liver disease, the inflammation in the portal vein and damage to the bile ducts in the liver occur chronically, resulting in cholestasis and liver fibrosis. The mRNA levels of inflammatory cytokine genes in the liver tissue of the cholestatic liver disease mouse animal models obtained by the same method as in Example 3.1 were measured, and shown in FIG. 6.

For assay [3], the system named is Poly I:C-induced cholestatic liver disease animal models. Briefly: Blood AST, ALT, ALP in Poly I:C-induced primary biliary cirrhosis mice (Example 5). It is filed as in vivo. As for the experimental part: Of cholestatic liver diseases, primary biliary cirrhosis (PBC) may be introduced to a similar state by using a viral RNA mimic and the Toll-like receptor polyinosinic-polycytidylic acid (Poly I:C). After 8-week-old C57BL/6 male mice (Samtako, Korea) were divided into each group (=6), each experimental group excluding a normal group was intraperitoneally administered 5 mg/kg Poly I:C twice a week for 8 weeks. Thereafter, the mice were fed a diet with control (vehicle), β-lapachone 40 mg/kg, β-lapachone 80 mg/kg, and positive control ursodeoxycholic acid 100 mg/kg and obeticholic acid 30 mg/kg for 8 weeks. On the 16th week of treatment, the experiment was ended, and the mice were sacrificed and then the blood was collected from the heart.

Assay [4] relates to peripheral blood mononuclear cells (PBMCs). Briefly: IL-1β and IL-18 expression in LPS and ATP treated peripheral blood mononuclear cells. The note with it: LPS 200 ng/mL and ATP, 0.5, 1, 2 μM β-lapachone, 4 hours. It is filed as cell-based, mice. As for the experimental part: Considering that inflammatory cytokines mediate the pathogenic mechanism of cholestatic liver disease, the peripheral blood mononuclear cell model was used by a modified method of Boyum et al. (1968). Peripheral blood mononuclear cells isolated from healthy 8-week-old C57BL/6 male mice (Samtako, Korea) were maintained by primary culture in RPMI-1640 medium containing 10% FBS, 2 mM glutamine, 100 U penicillin, and 0.1 mg/ml streptomycin. Stable peripheral blood mononuclear cells (PBMCs) were treated with LPS at 200 ng/mL and ATP and β-lapachone at 0, 0.5, 1, 2 μM in the medium and, after 4 hours, the expression levels of IL-1β and IL-18 were investigated, and the results are shown in FIG. 15.

For assay [5], the system named is DDC-induced cholestatic liver disease mice. As to the kind of experiment: Sirius Red and Masson's trichrome staining of liver connective tissue, DDC-induced cholestatic liver disease mice. Conditions: 40 and 80 mg/kg in diet, DDC 14 days. It is filed as in vivo. As for the experimental part: DDC-induced cholestatic liver disease mouse animal models were prepared according to the method of Elisa Pose et al. by using 8-week-old C57BL/6 male mice (Samtako, Korea). Briefly, cholestatic liver disease was induced by feeding a standard rodent diet supplemented with 0.1% (w/w) DDC for 7 or 14 days. The 12-hour light and dark cycle was maintained and animals were allowed to free access to water. The standard rodent diet included medium wheat, wheat, corn, and corn gluten flour, and soybean oil (14% protein). All animal related procedures were reviewed and approved by the Institutional Animal Care and Use Committee of Korea Research Institute of Bioscience and Biotechnology (KRIBB), KRIBB-AEC-20165). The tissue staining of the cholestatic liver disease animal models was measured through H&E staining (basic tissue staining), Sirius Red staining (collagen staining), and Masson's trichrome staining (collagen, cytoplasm, muscle fibers, etc.), and the tissue staining was measured by a skilled researcher. To investigate the preventive effect of β-Lapachone (BL) on cholestatic liver disease, the mice were fed a diet with 0 (DDC-vehicle), 40 mg/kg (DDC-BL40) and 80 mg/kg (DDC-BL80) 3 days before DDC treatment (total 17 days) and, after 3 days, were fed a diet with DDC (total 14 days). […]

For assay [6] the test system is unchanged. Briefly: Blood indexes (ALT, AST, ALP, bilirubin), DDC and β-lapachone given together for 7 days (Example 3.1). It is filed as in vivo. The procedure: DDC-induced cholestatic liver disease mouse animal models were prepared according to the method of Elisa Pose et al. by using 8-week-old C57BL/6 male mice (Samtako, Korea). Briefly, cholestatic liver disease was induced by feeding a standard rodent diet supplemented with 0.1% (w/w) DDC for 7 or 14 days. The 12-hour light and dark cycle was maintained and animals were allowed to free access to water. The standard rodent diet included medium wheat, wheat, corn, and corn gluten flour, and soybean oil (14% protein). All animal related procedures were reviewed and approved by the Institutional Animal Care and Use Committee of Korea Research Institute of Bioscience and Biotechnology (KRIBB), KRIBB-AEC-20165).
To investigate the effect of β-lapachone (BL) on the occurrence of cholestatic liver disease, both […] and β-lapachone were administered to mice to characterize animal models.
as §1

Where [7] appears, read: β-lapachone 40, 80 mg/kg in diet for 8 weeks after 8 weeks Poly I:C.
Where [8] appears, read: 20, 40, 80, 100 mg/kg in diet with DDC, depending on the concentration.

On to `CC1(C)CCC2=C(O1)c1ccccc1C(=O)C2=O` [β-lapachone], for which, in assay [1], the “protein expression level of fibronectin increased by TGF-β1” value is reported as “reduced depending on the concentration” and the “protein expression level of α-SMA increased by TGF-β1” value is recorded as “reduced depending on the concentration”. In assay [2], the “transcriptional level of IL-1β in liver” value is recorded as “inhibited” and the “transcriptional level of TNFα in liver” value is listed as “inhibited”. Besides, the “effect on AST, ALT, ALP compared with comparative substances” value in assay [3] (vs ursodeoxycholic acid 100 mg/kg and obeticholic acid 30 mg/kg, 8 weeks) was “excellent effect compared with the comparative substances ursodeoxycholic acid (UDCA) and obeticholic acid (OCA)”. Moreover, in assay [3] (setting [7]), the “ALP in the blood increased by Poly I:C” value is given as “inhibited”, the “ALT in the blood increased by Poly I:C” value is reported as “inhibited” and the “AST in the blood increased by Poly I:C” value is “inhibited”. Besides, in assay [4], the “expression level of IL-1β increased by LPS and ATP” value is given as “reduced depending on the concentration”; the “expression level of IL-18 increased by LPS and ATP” value is “reduced depending on the concentration”. In addition, the “formation of connective tissues / fibrosis progression (Sirius Red and Masson's trichrome staining)” value in assay [5] was “inhibited such fibrosis progression”. Besides, in assay [6] (setting [8]), the “ALP in the blood increased by DDC” value was “inhibited”, the “ALT in the blood increased by DDC” value is “inhibited”, the “AST in the blood increased by DDC” value was “inhibited” and the “bilirubin in the blood increased by DDC” value was “inhibited”. Further, in assay [6] (vs ursodeoxycholic acid 100 mg/kg and obeticholic acid 30 mg/kg), the “effect on blood indexes compared with positive controls” value was “excellent effects compared with ursodeoxycholic acid (UDCA) and obeticholic acid (OCA)”.
